# Measurements taken from PubChem BioAssay AID1963838 (Molecular Pharmacology Branch, DTP, NCI, 2024).
# Test system: 855422-203-R-J1-PDC complex spheroid viability
# Assay: Anticancer human tumor 855422-203-R-J1-PDC patient-derived bladder carcinoma cell line growth inhibition [POLQ]
# Conditions: for IC50: curve of first compound; for viability, T/C: stronger effect = lower value
# Outline: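 Growth inhibition in 3D: complex spheroids (tumor PDC, HUVEC, MSC) treated with POLQ inhibitor combinations; where Cmax unknown, highest tested concentration 10 microM, except SN-38 at 1 microM.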
# 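Note: spheroids exposed to compounds for seven days before readout.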
smiles,measurement,setting,value
C#Cc1c(F)ccc2cc(O)cc(-c3ncc4c(N5CC6CCC(C5)N6)nc(OCC56CCCN5CC(F)C6)nc4c3F)c12 (configuration not stated) + Nc1ccc(C#CCN(C(=O)Cc2ncc(C(F)(F)F)cc2C(F)(F)F)c2ccc(F)cc2)nn1,IC50,second compound 0.0316 µM,> 10 µM
same,IC50,second compound 0.1 µM,> 10 µM
same,IC50,second compound 0.316 µM,> 10 µM
same,IC50,second compound 1 µM,> 10 µM
same,IC50,second compound 3.16 µM,> 10 µM
same,IC50,second compound 10 µM,> 10 µM
same,"viability, T/C","second compound 0.0316 µM, first compound 0.0316 µM",110%
same,"viability, T/C","second compound 0.0316 µM, first compound 0.1 µM",110%
same,"viability, T/C","second compound 0.0316 µM, first compound 0.316 µM",102%
same,"viability, T/C","second compound 0.0316 µM, first compound 1 µM",98%
same,"viability, T/C","second compound 0.0316 µM, first compound 3.16 µM",110%
same,"viability, T/C","second compound 0.0316 µM, first compound 10 µM",109%
same,"viability, T/C","second compound 0.1 µM, first compound 0.0316 µM",96.4%
same,"viability, T/C","second compound 0.1 µM, first compound 0.1 µM",106%
same,"viability, T/C","second compound 0.1 µM, first compound 0.316 µM",85.6%
same,"viability, T/C","second compound 0.1 µM, first compound 1 µM",101%
same,"viability, T/C","second compound 0.1 µM, first compound 3.16 µM",138%
same,"viability, T/C","second compound 0.1 µM, first compound 10 µM",102%
same,"viability, T/C","second compound 0.316 µM, first compound 0.0316 µM",100%
same,"viability, T/C","second compound 0.316 µM, first compound 0.1 µM",120%
same,"viability, T/C","second compound 0.316 µM, first compound 0.316 µM",124%
same,"viability, T/C","second compound 0.316 µM, first compound 1 µM",111%
same,"viability, T/C","second compound 0.316 µM, first compound 3.16 µM",120%
same,"viability, T/C","second compound 0.316 µM, first compound 10 µM",115%
same,"viability, T/C","second compound 1 µM, first compound 0.0316 µM",107%
same,"viability, T/C","second compound 1 µM, first compound 0.1 µM",98%
same,"viability, T/C","second compound 1 µM, first compound 0.316 µM",107%
same,"viability, T/C","second compound 1 µM, first compound 1 µM",109%
same,"viability, T/C","second compound 1 µM, first compound 3.16 µM",113%
same,"viability, T/C","second compound 1 µM, first compound 10 µM",99%
same,"viability, T/C","second compound 3.16 µM, first compound 0.0316 µM",92.5%
same,"viability, T/C","second compound 3.16 µM, first compound 0.1 µM",99%
same,"viability, T/C","second compound 3.16 µM, first compound 0.316 µM",97.9%
same,"viability, T/C","second compound 3.16 µM, first compound 1 µM",97.6%
same,"viability, T/C","second compound 3.16 µM, first compound 3.16 µM",108%
same,"viability, T/C","second compound 3.16 µM, first compound 10 µM",106%
same,"viability, T/C","second compound 10 µM, first compound 0.0316 µM",103%
same,"viability, T/C","second compound 10 µM, first compound 0.1 µM",94.3%
same,"viability, T/C","second compound 10 µM, first compound 0.316 µM",90.7%
same,"viability, T/C","second compound 10 µM, first compound 1 µM",100%
same,"viability, T/C","second compound 10 µM, first compound 3.16 µM",103%
same,"viability, T/C","second compound 10 µM, first compound 10 µM",91.3%
